Measurements taken from PubChem BioAssay AID248 (DTP/NCI, 2004).
Toxic doses and inconclusive results are not listed. Rule as the data show it: active = T/C of 150% or more; inactive = T/C below 125%.

Tested on: L1210 leukemia ip in BDF1 mice, survival T/C
Assay: NCI In Vivo Anticancer Drug Screen. Data for tumor model L1210 Leukemia (intraperitoneal) in B6D2F1 (BDF1) mice
Conditions: endpoint: mean survival time, higher = longer survival
Procedure, shortened: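 Antitumor effect is assessed in tumor-bearing animals. Survival in the compound arm is compared with a vehicle-dosed control arm and expressed as their quotient.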

[1] = dose: 100.0 mg/kg/injection, schedule: Q04DX003 (ip), vehicle: Klucel (hydroxypropylcellulose) (HPC)
[2] = dose: 200.0 mg/kg/injection, schedule: Q04DX003 (ip), vehicle: Klucel (hydroxypropylcellulose) (HPC)
[3] = dose: 400.0 mg/kg/injection, schedule: Q04DX003 (ip), vehicle: Klucel (hydroxypropylcellulose) (HPC)
[4] = dose: 100.0 mg/kg/injection, schedule: Q01DX009 (ip), vehicle: Klucel (hydroxypropylcellulose) (HPC)
[5] = dose: 200.0 mg/kg/injection, schedule: Q01DX009 (ip), vehicle: Klucel (hydroxypropylcellulose) (HPC)
[6] = dose: 400.0 mg/kg/injection, schedule: Q01DX009 (ip), vehicle: Klucel (hydroxypropylcellulose) (HPC)
[7] = dose: 100.0 mg/kg/injection, schedule: Q01DX001 (ip), vehicle: saline
[8] = dose: 200.0 mg/kg/injection, schedule: Q01DX001 (ip), vehicle: saline
[9] = dose: 400.0 mg/kg/injection, schedule: Q01DX001 (ip), vehicle: saline
[10] = dose: 100.0 mg/kg/injection, schedule: Q01DX001 (ip), vehicle: saline with Tween-80
[11] = dose: 200.0 mg/kg/injection, schedule: Q01DX001 (ip), vehicle: saline with Tween-80
[12] = dose: 400.0 mg/kg/injection, schedule: Q01DX001 (ip), vehicle: saline with Tween-80

Measured: T/C

CCOC(=O)N/N=C/c1ccccc1O
inactive: dose: 75.0 mg/kg/injection, schedule: Q01DX001 (ip), vehicle: carboxymethylcellulose (CMC) 103 % of control | dose: 150.0 mg/kg/injection, schedule: Q01DX001 (ip), vehicle: carboxymethylcellulose (CMC) 104 % of control | dose: 300.0 mg/kg/injection, schedule: Q01DX001 (ip), vehicle: carboxymethylcellulose (CMC) 97 % of control

CC(C)(C)OC(=O)C1(c2ccccc2)OC1c1ccccc1 (centres undefined)
inactive: [1] 105 % of control | [2] 100 % of control | [3] 96 % of control

Nc1cccc(S(=O)(=O)c2cccc(N)c2)c1
inactive: [4] 100 % of control | [1] 97 % of control | [5] 94 % of control | [2] 94 % of control | [6] 92 % of control | [3] 94 % of control

COc1ccc(C=NC(C)(C)CO)c(OC)c1
inactive: dose: 75.0 mg/kg/injection, schedule: Q01DX001 (ip), vehicle: saline 96 % of control | dose: 150.0 mg/kg/injection, schedule: Q01DX001 (ip), vehicle: saline 101 % of control

O=c1[nH]ncc2c1[nH]c1cccc(Cl)c12
inactive: dose: 200.0 mg/kg/injection, schedule: Q04DX003 (ip), vehicle: carboxymethylcellulose (CMC) 88 % of control | dose: 400.0 mg/kg/injection, schedule: Q04DX003 (ip), vehicle: carboxymethylcellulose (CMC) 92 % of control

COc1cc(S(=O)(=O)F)ccc1NC(=O)/C=C/c1ccc([N+](=O)[O-])cc1
inactive: [7] 103 % of control | [8] 94 % of control | [9] 100 % of control

Cc1cc(C)c(-n2c(C)cc(C(=O)O)c2C)c(C)c1C(=O)O
inactive: dose: 100.0 mg/kg/injection, schedule: Q01DX001 (ip), vehicle: alcohol 102 % of control | dose: 200.0 mg/kg/injection, schedule: Q01DX001 (ip), vehicle: alcohol 96 % of control | dose: 400.0 mg/kg/injection, schedule: Q01DX001 (ip), vehicle: alcohol 97 % of control

CC1(C)NC(C(=O)O)C(C)(C)S1 (centres undefined)
inactive: [7] 100 % of control | [8] 89 % of control | [9] 95 % of control

O=[N+]([O-])c1ccc(S(=O)(=O)OCc2cccc(OS(=O)(=O)c3ccc([N+](=O)[O-])cc3)c2)cc1
inactive: [10] 100 % of control | [4] 94 % of control | [1] 100 % of control | [11] 104 % of control | [5] 93 % of control | [2] 95 % of control | [12] 102 % of control | [6] 107 % of control | [3] 102 % of control

CCN(CC)/N=N/c1[nH]ncc1C(N)=O
inactive: dose: 88.0 mg/kg/injection, schedule: Q01DX009 (ip), vehicle: saline with Tween-80 119 % of control | [10] 111 % of control | dose: 100.0 mg/kg/injection, schedule: Q04DX003 (ip), vehicle: saline with Tween-80 101 % of control | [11] 103 % of control | dose: 200.0 mg/kg/injection, schedule: Q04DX003 (ip), vehicle: saline with Tween-80 103 % of control | dose: 300.0 mg/kg/injection, schedule: Q01DX009 (ip), vehicle: saline with Tween-80 110 % of control | [12] 106 % of control | dose: 400.0 mg/kg/injection, schedule: Q04DX003 (ip), vehicle: saline with Tween-80 108 % of control

CC12CCCCC1CC/C(=C\c1ccco1)C2=O (centres undefined)
inactive: dose: 100.0 mg/kg/injection, schedule: Q01DX009 (ip), vehicle: saline 98 % of control | dose: 100.0 mg/kg/injection, schedule: Q04DX003 (ip), vehicle: saline 97 % of control | dose: 200.0 mg/kg/injection, schedule: Q01DX009 (ip), vehicle: saline 98 % of control | dose: 200.0 mg/kg/injection, schedule: Q04DX003 (ip), vehicle: saline 100 % of control | dose: 400.0 mg/kg/injection, schedule: Q01DX009 (ip), vehicle: saline 95 % of control | dose: 400.0 mg/kg/injection, schedule: Q04DX003 (ip), vehicle: saline 100 % of control

CCOC(=O)CNc1cccc(F)c1
inactive: dose: 100.0 mg/kg/injection, schedule: Q04DX002 (ip), vehicle: Klucel (hydroxypropylcellulose) (HPC) 101 % of control | dose: 200.0 mg/kg/injection, schedule: Q04DX002 (ip), vehicle: Klucel (hydroxypropylcellulose) (HPC) 108 % of control | dose: 400.0 mg/kg/injection, schedule: Q04DX002 (ip), vehicle: Klucel (hydroxypropylcellulose) (HPC) 105 % of control

CCC(/C=C\C(C)C1CCC2C3CC=C4CC(O)CCC4(C)C3CCC12C)C(C)C (centres undefined)
inactive: dose: 75.0 mg/kg/injection, schedule: Q01DX009 (sc), vehicle: steriod suspending solution 94 % of control | dose: 100.0 mg/kg/injection, schedule: Q01DX001 (ip), vehicle: carboxymethylcellulose (CMC) 89 % of control | dose: 100.0 mg/kg/injection, schedule: Q04DX003 (sc), vehicle: steriod suspending solution 97 % of control | dose: 150.0 mg/kg/injection, schedule: Q01DX009 (sc), vehicle: steriod suspending solution 98 % of control | dose: 200.0 mg/kg/injection, schedule: Q01DX001 (ip), vehicle: carboxymethylcellulose (CMC) 89 % of control | dose: 200.0 mg/kg/injection, schedule: Q04DX003 (sc), vehicle: steriod suspending solution 100 % of control | dose: 300.0 mg/kg/injection, schedule: Q01DX009 (sc), vehicle: steriod suspending solution 97 % of control | dose: 400.0 mg/kg/injection, schedule: Q01DX001 (ip), vehicle: carboxymethylcellulose (CMC) 86 % of control | dose: 400.0 mg/kg/injection, schedule: Q04DX003 (sc), vehicle: steriod suspending solution 95 % of control

Cc1ccccc1-n1c(O)c(N=Nc2ccc(Cl)cc2)c(=O)n(-c2ccccc2)c1=S
inactive: dose: 100.0 mg/kg/injection, schedule: Q01DX001 (ip), vehicle: Klucel (hydroxypropylcellulose) (HPC) 87 % of control | dose: 200.0 mg/kg/injection, schedule: Q01DX001 (ip), vehicle: Klucel (hydroxypropylcellulose) (HPC) 109 % of control

O=C(Nc1ccc(Cl)cc1)Oc1c(Cl)cc(Cl)c(Cl)c1[N+](=O)[O-]
inactive: dose: 100.0 mg/kg/injection, schedule: Q04DX002 (ip), vehicle: gum acacia 94 % of control | dose: 200.0 mg/kg/injection, schedule: Q04DX002 (ip), vehicle: gum acacia 88 % of control

Cc1ncc(C(=O)O)s1
inactive: [1] 90 % of control | [2] 95 % of control | [3] 98 % of control

N#C[C@@H]1C2C=CC(CC2)[C@H]1C#N
inactive: dose: 0.5 mg/kg/injection, schedule: Q03HX024 (ip), vehicle: gum acacia 106 % of control | dose: 0.7 mg/kg/injection, schedule: Q03HX024 (ip), vehicle: gum acacia 106 % of control | dose: 1.1 mg/kg/injection, schedule: Q03HX024 (ip), vehicle: gum acacia 106 % of control | dose: 1.6 mg/kg/injection, schedule: Q03HX024 (ip), vehicle: gum acacia 102 % of control | dose: 2.4 mg/kg/injection, schedule: Q01DX009 (ip), vehicle: gum acacia 104 % of control | dose: 2.4 mg/kg/injection, schedule: Q03HX024 (ip), vehicle: gum acacia 103 % of control | dose: 3.6 mg/kg/injection, schedule: Q01DX009 (ip), vehicle: gum acacia 102 % of control | dose: 5.0 mg/kg/injection, schedule: Q01DX001 (ip), vehicle: gum acacia 103 % of control | dose: 5.0 mg/kg/injection, schedule: Q04DX003 (ip), vehicle: gum acacia 97 % of control | dose: 7.0 mg/kg/injection, schedule: Q01DX001 (ip), vehicle: gum acacia 101 % of control | dose: 7.0 mg/kg/injection, schedule: Q04DX003 (ip), vehicle: gum acacia 97 % of control | dose: 11.0 mg/kg/injection, schedule: Q01DX001 (ip), vehicle: gum acacia 100 % of control | dose: 11.0 mg/kg/injection, schedule: Q04DX003 (ip), vehicle: gum acacia 92 % of control

CN(C)/N=N\c1nc[nH]c1C(=O)NN
inactive: dose: 50.0 mg/kg/injection, schedule: Q01DX001 (ip), vehicle: saline 107 % of control | [7] 101 % of control | [8] 107 % of control | [9] 110 % of control

Cc1ccc(NC(=O)C(Br)C(Br)C(=O)O)cc1Cl (centres undefined)
inactive: dose: 100.0 mg/kg/injection, schedule: Q01DX009 (ip), vehicle: saline with Tween-80 107 % of control | dose: 200.0 mg/kg/injection, schedule: Q01DX009 (ip), vehicle: saline with Tween-80 97 % of control

S=C1SCCS1
inactive: dose: 100.0 mg/kg/injection, schedule: Q01DX009 (ip), vehicle: saline sonified 98 % of control | dose: 200.0 mg/kg/injection, schedule: Q01DX009 (ip), vehicle: saline sonified 95 % of control | dose: 400.0 mg/kg/injection, schedule: Q01DX009 (ip), vehicle: saline sonified 97 % of control
